Assay results from patent US20250082931A1, “Treating Gastric Cancer Using TTFields Combined with XELOX, FOLFOX or the Individual Constituents Thereof” (Novocure GmbH, priority 2019, published 2025).

Key:
AGS cells = experiment: Clonogenic effect (colonies count); assay type: cell-based; conditions: for colonies count: 72 h
Procedure: (§1) After 72 h of treatment the media and the cells were collected, and cytotoxicity was determined by cell counts. […] For the testing of the clonogenic effect, cells were seeded for colonies.
(§2) After 6-14 days the colonies were fixed, stained and counted to determine clonogenic effect. The overall effect was calculated by multiplying the cytotoxic effect and the clonogenic effect.
(§3) Clonogenic effect: The colonies from each well were counted using ImageJ software. Average and standard deviation of colony number of at least 5 wells from each treatment were calculated in excel software. The averages from these repeats was calculated to averages and standard errors and is presented as percent from control (no drug treatment) in XY graph of points with error bars using GraphPed software. Significant was determine by 2-way ANOVA followed Multiple comparison using GraphPed software.

KATO III cells [1] = experiment: Apoptosis analysis by Annexin V / 7AAD staining; assay type: cell-based; conditions: for AnnV+ 7AAD+ cell fraction / AnnV+ 7AAD− cell fraction / AnnV− 7AAD+ cell fraction / AnnV− 7AAD− cell fraction: 72 h
Procedure: After 72 h of treatment the media and the cells were collected, and cytotoxicity was determined by cell counts. Cells (including cells from the media) were stained for Annexin V and 7AAD for apoptosis analysis. For the testing of the clonogenic effect, cells were seeded for colonies.
(§4) Cells were seeded on inovitro dishes and petri dishes 24 h before starting the experiments. Media containing the indicated concentration of each chemotherapy component alone or FOLFOX and control media was added to the cells and the dishes were connected to TTFields (as in SOP-BI-009) or grown in 37° C., 5% CO2 for 72 h. Each treatment included 8 repeats (8 dishes). The media was replaced every 24 h. At the end of the experiment the cells were collected, and cytotoxicity was determined by cell counts, small number of cells were seeded for colonies and the cells (including cells from the media) were stained for Annexin V and 7AAD for apoptosis analysis.
Apoptotic effect: Average of cell fraction of each marker staining (Annexin V and 7AAD) of at least 5 dishes from each treatment was calculated in Excel software. The averages from these repeats was calculated to averages and is presented in stacked bar graph using GraphPed software.

KATO III cells [2] = experiment: Clonogenic effect (colonies count); conditions: for colonies count: 72 h;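 for all read-outs here: after treatment, KATO III cells were reseeded and grown 6–14 days, then colonies were fixed, stained and counted, expressed as percent of untreated (no drug) control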
Procedure: as §1, §2, §3

KATO III cells [3] = experiment: Cytotoxic effect by cell count after 72 h, with and without TTFields
Procedure: During the treatment the media of all dishes was replaced every 24 h (“hours”).
After 72 h of treatment the media and the cells were collected, and cytotoxicity was determined by cell counts.
as §4
A TTFields generator (Inovitro systems) was used to apply the treatment to the cells.
Cytotoxic effect: Average and standard deviation of cell number of at least 5 dishes from each treatment was calculated in Excel software. The averages from these repeats was calculated to averages and standard error and is presented as percent from control (no drug treatment) in XY graph of points with error bars using GraphPed software. Significant was determine by 2-way ANOVA followed Multiple comparison using GraphPed software.

KATO III cells [4] = experiment: Overall effect (cytotoxic effect x clonogenic effect); conditions: 1.5 uM, 72 h, + TTFields 150 kHz 1.6 V/cm
[5] = 1.5 nM, + TTFields 150 kHz 1.6 V/cm
[6] = 4.5 nM, + TTFields 150 kHz 1.6 V/cm
[7] = 13.5 nM, + TTFields 150 kHz 1.6 V/cm
[8] = 40 nM, + TTFields 150 kHz 1.6 V/cm
[9] = FOLFOX experiment, 1.5 uM, + TTFields 150 kHz 1.6 V/cm
[10] = FOLFOX experiment, 1.5 uM, no TTFields
[11] = 1.5 uM, + TTFields 150 kHz 1.6 V/cm
[12] = 4.5 uM, + TTFields 150 kHz 1.6 V/cm
[13] = 13.5 uM, + TTFields 150 kHz 1.6 V/cm
[14] = 40 uM, + TTFields 150 kHz 1.6 V/cm

Q: Which results are given for `O=c1[nH]cc(F)c(=O)[nH]1` [5-FU, 5-fluorouracil]?
A: colonies count (AGS cells; 0.5 uM, + TTFields 150 kHz 1.0 V/cm): 51 % from control; colonies count (AGS cells; 0.5 uM, no TTFields): 95 % from control; colonies count (AGS cells; 1.5 uM, + TTFields 150 kHz 1.0 V/cm): 59 % from control; colonies count (AGS cells; 1.5 uM, no TTFields): 90 % from control; colonies count (AGS cells; 4.5 uM, + TTFields 150 kHz 1.0 V/cm): 35 % from control; colonies count (AGS cells; 4.5 uM, no TTFields): 74 % from control; colonies count (AGS cells; 13.5 uM, + TTFields 150 kHz 1.0 V/cm): 11 % from control; colonies count (AGS cells; 13.5 uM, no TTFields): 9 % from control; colonies count (AGS cells; 40 uM, + TTFields 150 kHz 1.0 V/cm): 0 % from control; colonies count (AGS cells; 40 uM, no TTFields): 0 % from control; colonies count (AGS cells; FOLFOX experiment, 0.5 uM, + TTFields 150 kHz 1.0 V/cm): 59 % from control; colonies count (AGS cells; FOLFOX experiment, 0.5 uM, no TTFields): 100 % from control; colonies number (clonogenic effect and overall effect), drug + TTFields compared to drug alone (AGS cells; Two-way ANOVA P<0.001): significant reduction in colonies number; elevation in percent of cells that undergo apoptosis, drug + TTFields compared to drug alone (KATO III cells [1]): higher; AnnV+ 7AAD+ cell fraction (KATO III cells [1]; [5]): 19.12%; AnnV+ 7AAD− cell fraction (KATO III cells [1]; [5]): 17.49%; AnnV− 7AAD+ cell fraction (KATO III cells [1]; [5]): 2.24%; AnnV− 7AAD− cell fraction (KATO III cells [1]; [5]): 61.16%; AnnV+ 7AAD+ cell fraction (KATO III cells [1]; 1.5 nM, no TTFields): 11.98%; AnnV+ 7AAD− cell fraction (KATO III cells [1]; 1.5 nM, no TTFields): 11.44%; AnnV− 7AAD+ cell fraction (KATO III cells [1]; 1.5 nM, no TTFields): 1.95%; AnnV− 7AAD− cell fraction (KATO III cells [1]; 1.5 nM, no TTFields): 74.64%; AnnV+ 7AAD+ cell fraction (KATO III cells [1]; [6]): 20.44%; AnnV+ 7AAD− cell fraction (KATO III cells [1]; [6]): 13.34%; AnnV− 7AAD+ cell fraction (KATO III cells [1]; [6]): 4.25%; AnnV− 7AAD− cell fraction (KATO III cells [1]; [6]): 61.98%; AnnV+ 7AAD+ cell fraction (KATO III cells [1]; 4.5 nM, no TTFields): 11.92%; AnnV+ 7AAD− cell fraction (KATO III cells [1]; 4.5 nM, no TTFields): 11.00%; AnnV− 7AAD+ cell fraction (KATO III cells [1]; 4.5 nM, no TTFields): 3.59%; AnnV− 7AAD− cell fraction (KATO III cells [1]; 4.5 nM, no TTFields): 73.50%; AnnV+ 7AAD+ cell fraction (KATO III cells [1]; [7]): 17.18%; AnnV+ 7AAD− cell fraction (KATO III cells [1]; [7]): 16.21%; AnnV− 7AAD+ cell fraction (KATO III cells [1]; [7]): 2.01%; AnnV− 7AAD− cell fraction (KATO III cells [1]; [7]): 64.61%; AnnV+ 7AAD+ cell fraction (KATO III cells [1]; 13.5 nM, no TTFields): 11.72%; AnnV+ 7AAD− cell fraction (KATO III cells [1]; 13.5 nM, no TTFields): 12.44%; AnnV− 7AAD+ cell fraction (KATO III cells [1]; 13.5 nM, no TTFields): 2.22%; AnnV− 7AAD− cell fraction (KATO III cells [1]; 13.5 nM, no TTFields): 73.64%; AnnV+ 7AAD+ cell fraction (KATO III cells [1]; [8]): 21.25%; AnnV+ 7AAD− cell fraction (KATO III cells [1]; [8]): 11.40%; AnnV− 7AAD+ cell fraction (KATO III cells [1]; [8]): 3.58%; AnnV− 7AAD− cell fraction (KATO III cells [1]; [8]): 63.76%; AnnV+ 7AAD+ cell fraction (KATO III cells [1]; 40 nM, no TTFields): 12.48%; AnnV+ 7AAD− cell fraction (KATO III cells [1]; 40 nM, no TTFields): 10.55%; AnnV− 7AAD+ cell fraction (KATO III cells [1]; 40 nM, no TTFields): 3.42%; AnnV− 7AAD− cell fraction (KATO III cells [1]; 40 nM, no TTFields): 73.55%; AnnV+ 7AAD+ cell fraction (KATO III cells [1]; [9]): 32.59%; AnnV+ 7AAD− cell fraction (KATO III cells [1]; [9]): 16.09%; AnnV− 7AAD+ cell fraction (KATO III cells [1]; [9]): 1.39%; AnnV− 7AAD− cell fraction (KATO III cells [1]; [9]): 49.94%; AnnV+ 7AAD+ cell fraction (KATO III cells [1]; [10]): 22.22%; AnnV+ 7AAD− cell fraction (KATO III cells [1]; [10]): 11.36%; AnnV− 7AAD+ cell fraction (KATO III cells [1]; [10]): 0.96%; AnnV− 7AAD− cell fraction (KATO III cells [1]; [10]): 65.47%; colonies count (KATO III cells [2]; [11]): 50 % from control; colonies count (KATO III cells [2]; 1.5 uM, no TTFields): 83 % from control; colonies count (KATO III cells [2]; [12]): 38 % from control; colonies count (KATO III cells [2]; 4.5 uM, no TTFields): 55 % from control; colonies count (KATO III cells [2]; [13]): 8 % from control; colonies count (KATO III cells [2]; 13.5 uM, no TTFields): 9 % from control; colonies count (KATO III cells [2]; [14]): 1 % from control; colonies count (KATO III cells [2]; 40 uM, no TTFields): 2 % from control; colonies number (clonogenic effect and overall effect), drug + TTFields compared to drug alone (KATO III cells [2]; Two-way ANOVA P<0.001): significant reduction in colonies number; cell count (KATO III cells [3]; [11]): 47 % from control; cell count (KATO III cells [3]; 1.5 uM, no TTFields): 70 % from control; cell count (KATO III cells [3]; [12]): 42 % from control; cell count (KATO III cells [3]; 4.5 uM, no TTFields): 56 % from control; cell count (KATO III cells [3]; [13]): 34 % from control; cell count (KATO III cells [3]; 13.5 uM, no TTFields): 47 % from control; cell count (KATO III cells [3]; [14]): 32 % from control; cell count (KATO III cells [3]; 40 uM, no TTFields): 34 % from control; cell count (KATO III cells [3]; [9]): 50 % from control; cell count (KATO III cells [3]; [10]): 73 % from control; overall effect (colonies count multiplying the cytotoxic effect) (KATO III cells [4]): 24 % from control
